Values quoted from earlier work in patent US20040087576A1, “Antimnemonic therapy for hypermemory syndromes” (priority 2002, published 2004).

Key:
[1] = test system: reconsolidation of retrieved memories; conditions: in vivo
[2] = patients; doses of 100-500 mg/day
[3] = test system: conditioned fear; conditions: in vivo
[4] = test system: rat fear-conditioning; conditions: rats
[5] = test system: emotion-related memory; conditions: rats; post-training administration
[6] = test system: PTSD symptoms; conditions: patients; 10-day course, 40 mg four times daily, versus placebo; assessed 3 months after the trauma

C[C@]12N[C@H](Cc3ccccc31)c1ccccc12 [MK-801]
amnesia by blocking the reconsolidation of retrieved memories [1]: induce amnesia by blocking the reconsolidation of retrieved memories

CC12CC3CC(C)(C1)CC(N)(C3)C2 [memantine]
tolerability [2]: well tolerated

N[C@@H]1CONC1=O [D-cycloserine]
extinction of conditioned fear [3]: facilitate the extinction of conditioned fear

COc1ccc(C[C@H]2NC[C@H](O)[C@H]2OC(C)=O)cc1 [anisomycin]
reconsolidation of reactivated memories ([4]; cue 1 or 14 days after conditioning, drug immediately after cue, tested 24 hours later): blocked reconsolidation of reactivated memories
fear response to the cue ([4]; cue presented a further twenty four hours after treatment): did not display the fear response

CC(C)NCC(O)COc1cccc2ccccc12 (stereo not drawn) [propranolol]
amnesia by blocking the reconsolidation of retrieved memories [1]: induce amnesia by blocking the reconsolidation of retrieved memories
consolidation of emotion-related memory [5]: blocked the consolidation of emotion-related memory
ratings of PTSD symptoms [6]: slightly, but significantly, lower

NC(CCCP(=O)(O)O)C(=O)O (stereo not drawn) [AP5]
amnesia by blocking the reconsolidation of retrieved memories [1]: induce amnesia by blocking the reconsolidation of retrieved memories
